Data from ChEMBL document CHEMBL5385931, “Microascones, Decahydrofluorene-Class Alkaloids from the Marine-Derived Fungus Microascus sp. SCSIO 41821” (J Nat Prod, 2024).
In brackets after ≈: the same amount, converted by molar mass.

Assays:
[1] = biological target: T1, Tyrosine-protein phosphatase non-receptor type 1 (Homo sapiens, UniProt P18031); assay: Inhibition of human PTP1B
T1 sequence (P18031 whole entry): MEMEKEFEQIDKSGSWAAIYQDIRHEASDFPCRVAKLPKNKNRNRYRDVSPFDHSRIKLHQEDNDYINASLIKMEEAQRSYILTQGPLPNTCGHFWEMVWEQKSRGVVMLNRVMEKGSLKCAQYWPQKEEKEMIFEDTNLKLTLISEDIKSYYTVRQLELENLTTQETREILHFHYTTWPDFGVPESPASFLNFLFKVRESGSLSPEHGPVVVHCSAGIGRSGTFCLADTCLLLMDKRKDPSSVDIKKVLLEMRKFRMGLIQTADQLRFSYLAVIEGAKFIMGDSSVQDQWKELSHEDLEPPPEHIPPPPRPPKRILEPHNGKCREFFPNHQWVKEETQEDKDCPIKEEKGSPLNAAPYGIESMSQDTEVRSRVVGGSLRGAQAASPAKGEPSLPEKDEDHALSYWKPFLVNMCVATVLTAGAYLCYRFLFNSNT

[2] = biological target: T2, M-phase inducer phosphatase 2 (Homo sapiens, UniProt P30305); assay: Inhibition of human CDC25B
T2 sequence (P30305 whole entry): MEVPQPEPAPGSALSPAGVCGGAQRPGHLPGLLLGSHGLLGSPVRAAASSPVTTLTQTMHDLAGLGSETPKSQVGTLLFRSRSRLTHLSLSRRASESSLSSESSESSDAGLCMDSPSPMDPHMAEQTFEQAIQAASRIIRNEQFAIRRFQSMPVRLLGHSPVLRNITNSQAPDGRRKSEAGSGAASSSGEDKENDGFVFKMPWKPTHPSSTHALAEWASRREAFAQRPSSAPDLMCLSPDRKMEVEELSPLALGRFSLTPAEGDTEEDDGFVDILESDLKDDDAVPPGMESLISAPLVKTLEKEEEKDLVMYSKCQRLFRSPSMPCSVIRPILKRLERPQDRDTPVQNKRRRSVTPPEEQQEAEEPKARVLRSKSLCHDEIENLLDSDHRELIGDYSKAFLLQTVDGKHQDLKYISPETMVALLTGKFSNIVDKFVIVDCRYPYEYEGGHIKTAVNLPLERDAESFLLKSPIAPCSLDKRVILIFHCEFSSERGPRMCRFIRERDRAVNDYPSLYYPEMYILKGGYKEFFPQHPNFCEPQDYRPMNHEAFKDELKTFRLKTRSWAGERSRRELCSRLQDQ

[3] = biological target: Receptor-type tyrosine-protein phosphatase F (Homo sapiens, UniProt P10586); assay: Inhibition of human LAR
[4] = biological target: Receptor-type tyrosine-protein phosphatase S (Homo sapiens, UniProt Q13332); assay: Inhibition of human PTPsigma
[5] = biological target: Dual specificity protein phosphatase 3 (Homo sapiens, UniProt P51452); assay: Inhibition of human VHR
NCI-H1975 = assay: Cytotoxicity against human NCI-H1975 cells assessed as cell growth inhibition by CCK8 assay
HepG2 = assay: Cytotoxicity against human HepG2 cells assessed as cell growth inhibition by CCK8 assay
Staphylococcus aureus [6] = assay: Antibacterial activity against Staphylococcus aureus ATCC 6538 assessed as bacterial growth inhibition by broth microdilution method; type: functional
Staphylococcus aureus [7] = assay: Antibacterial activity against methicillin-resistant Staphylococcus aureus SC41993 assessed as bacterial growth inhibition by broth microdilution method; type: functional
Escherichia coli = assay: Antibacterial activity against Escherichia coli ATCC 25922 assessed as bacterial growth inhibition by broth microdilution method; type: functional
Bacillus subtilis = assay: Antibacterial activity against Bacillus subtilis BS01 assessed as bacterial growth inhibition by broth microdilution method; type: functional
Streptococcus agalactiae = assay: Antibacterial activity against Streptococcus agalactiae ATCC 13813 assessed as bacterial growth inhibition by broth microdilution method; type: functional
[8] = test system: Bacillus amyloliquefaciens; assay: Antibacterial activity against Bacillus amyloliquefaciens GDMCC 60233 assessed as bacterial growth inhibition by broth microdilution method; type: functional
Streptococcus iniae = assay: Antibacterial activity against Streptococcus iniae SC41992 assessed as bacterial growth inhibition by broth microdilution method; type: functional

Chain of Receptor-type tyrosine-protein phosphatase S (Q13332 whole entry): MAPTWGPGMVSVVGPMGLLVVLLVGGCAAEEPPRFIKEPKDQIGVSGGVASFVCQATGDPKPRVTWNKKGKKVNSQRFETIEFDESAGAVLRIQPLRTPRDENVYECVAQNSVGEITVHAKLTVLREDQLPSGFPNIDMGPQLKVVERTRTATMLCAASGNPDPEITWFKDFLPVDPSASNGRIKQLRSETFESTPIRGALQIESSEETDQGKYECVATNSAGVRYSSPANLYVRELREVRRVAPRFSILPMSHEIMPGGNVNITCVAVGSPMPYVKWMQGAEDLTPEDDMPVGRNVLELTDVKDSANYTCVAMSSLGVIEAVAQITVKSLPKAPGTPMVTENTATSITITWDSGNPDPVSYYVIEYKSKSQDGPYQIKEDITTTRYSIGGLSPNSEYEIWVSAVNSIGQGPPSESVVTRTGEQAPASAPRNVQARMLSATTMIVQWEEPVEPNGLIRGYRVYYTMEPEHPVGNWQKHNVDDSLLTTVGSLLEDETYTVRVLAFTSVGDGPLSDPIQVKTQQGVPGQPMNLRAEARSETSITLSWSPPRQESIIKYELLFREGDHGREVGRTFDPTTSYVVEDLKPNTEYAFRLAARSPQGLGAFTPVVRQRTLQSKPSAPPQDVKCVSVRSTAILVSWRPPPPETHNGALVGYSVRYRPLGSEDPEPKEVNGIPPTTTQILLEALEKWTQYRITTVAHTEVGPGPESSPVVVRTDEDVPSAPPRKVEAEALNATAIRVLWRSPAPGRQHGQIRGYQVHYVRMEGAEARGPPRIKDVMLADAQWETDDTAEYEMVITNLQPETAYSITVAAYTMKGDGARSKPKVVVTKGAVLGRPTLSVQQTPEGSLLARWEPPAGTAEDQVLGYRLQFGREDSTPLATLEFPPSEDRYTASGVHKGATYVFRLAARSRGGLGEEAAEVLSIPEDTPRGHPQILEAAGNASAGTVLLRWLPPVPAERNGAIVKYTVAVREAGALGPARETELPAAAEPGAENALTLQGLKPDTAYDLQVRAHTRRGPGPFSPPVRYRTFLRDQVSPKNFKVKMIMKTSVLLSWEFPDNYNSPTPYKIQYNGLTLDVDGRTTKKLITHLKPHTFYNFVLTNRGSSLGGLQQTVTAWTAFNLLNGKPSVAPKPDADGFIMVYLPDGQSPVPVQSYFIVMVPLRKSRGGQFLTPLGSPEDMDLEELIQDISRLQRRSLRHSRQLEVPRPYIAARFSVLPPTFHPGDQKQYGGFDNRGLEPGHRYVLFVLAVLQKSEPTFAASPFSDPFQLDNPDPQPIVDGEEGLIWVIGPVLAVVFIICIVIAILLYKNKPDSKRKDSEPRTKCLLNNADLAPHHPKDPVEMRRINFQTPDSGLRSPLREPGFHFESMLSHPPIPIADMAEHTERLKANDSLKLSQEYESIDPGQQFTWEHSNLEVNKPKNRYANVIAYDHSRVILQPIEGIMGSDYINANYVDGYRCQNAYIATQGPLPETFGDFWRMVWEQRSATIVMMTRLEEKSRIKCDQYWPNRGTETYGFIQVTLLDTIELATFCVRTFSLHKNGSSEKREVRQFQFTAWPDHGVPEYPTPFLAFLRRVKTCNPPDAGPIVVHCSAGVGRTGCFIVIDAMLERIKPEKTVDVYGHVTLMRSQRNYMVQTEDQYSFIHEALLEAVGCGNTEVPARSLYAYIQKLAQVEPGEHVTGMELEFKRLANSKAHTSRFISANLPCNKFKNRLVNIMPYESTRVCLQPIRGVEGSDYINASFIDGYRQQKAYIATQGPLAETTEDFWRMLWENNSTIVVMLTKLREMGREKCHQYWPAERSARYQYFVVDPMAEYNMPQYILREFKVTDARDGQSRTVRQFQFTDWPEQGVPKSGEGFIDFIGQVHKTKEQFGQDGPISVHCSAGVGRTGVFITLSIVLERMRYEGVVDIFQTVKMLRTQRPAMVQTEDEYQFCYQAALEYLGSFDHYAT
Chain of Dual specificity protein phosphatase 3 (P51452 whole entry): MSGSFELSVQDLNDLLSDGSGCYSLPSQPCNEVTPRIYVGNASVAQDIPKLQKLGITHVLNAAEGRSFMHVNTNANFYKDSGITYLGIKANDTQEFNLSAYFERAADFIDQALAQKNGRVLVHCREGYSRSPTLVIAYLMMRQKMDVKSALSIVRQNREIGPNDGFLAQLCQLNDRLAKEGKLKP
Chain of Receptor-type tyrosine-protein phosphatase F (P10586 whole entry): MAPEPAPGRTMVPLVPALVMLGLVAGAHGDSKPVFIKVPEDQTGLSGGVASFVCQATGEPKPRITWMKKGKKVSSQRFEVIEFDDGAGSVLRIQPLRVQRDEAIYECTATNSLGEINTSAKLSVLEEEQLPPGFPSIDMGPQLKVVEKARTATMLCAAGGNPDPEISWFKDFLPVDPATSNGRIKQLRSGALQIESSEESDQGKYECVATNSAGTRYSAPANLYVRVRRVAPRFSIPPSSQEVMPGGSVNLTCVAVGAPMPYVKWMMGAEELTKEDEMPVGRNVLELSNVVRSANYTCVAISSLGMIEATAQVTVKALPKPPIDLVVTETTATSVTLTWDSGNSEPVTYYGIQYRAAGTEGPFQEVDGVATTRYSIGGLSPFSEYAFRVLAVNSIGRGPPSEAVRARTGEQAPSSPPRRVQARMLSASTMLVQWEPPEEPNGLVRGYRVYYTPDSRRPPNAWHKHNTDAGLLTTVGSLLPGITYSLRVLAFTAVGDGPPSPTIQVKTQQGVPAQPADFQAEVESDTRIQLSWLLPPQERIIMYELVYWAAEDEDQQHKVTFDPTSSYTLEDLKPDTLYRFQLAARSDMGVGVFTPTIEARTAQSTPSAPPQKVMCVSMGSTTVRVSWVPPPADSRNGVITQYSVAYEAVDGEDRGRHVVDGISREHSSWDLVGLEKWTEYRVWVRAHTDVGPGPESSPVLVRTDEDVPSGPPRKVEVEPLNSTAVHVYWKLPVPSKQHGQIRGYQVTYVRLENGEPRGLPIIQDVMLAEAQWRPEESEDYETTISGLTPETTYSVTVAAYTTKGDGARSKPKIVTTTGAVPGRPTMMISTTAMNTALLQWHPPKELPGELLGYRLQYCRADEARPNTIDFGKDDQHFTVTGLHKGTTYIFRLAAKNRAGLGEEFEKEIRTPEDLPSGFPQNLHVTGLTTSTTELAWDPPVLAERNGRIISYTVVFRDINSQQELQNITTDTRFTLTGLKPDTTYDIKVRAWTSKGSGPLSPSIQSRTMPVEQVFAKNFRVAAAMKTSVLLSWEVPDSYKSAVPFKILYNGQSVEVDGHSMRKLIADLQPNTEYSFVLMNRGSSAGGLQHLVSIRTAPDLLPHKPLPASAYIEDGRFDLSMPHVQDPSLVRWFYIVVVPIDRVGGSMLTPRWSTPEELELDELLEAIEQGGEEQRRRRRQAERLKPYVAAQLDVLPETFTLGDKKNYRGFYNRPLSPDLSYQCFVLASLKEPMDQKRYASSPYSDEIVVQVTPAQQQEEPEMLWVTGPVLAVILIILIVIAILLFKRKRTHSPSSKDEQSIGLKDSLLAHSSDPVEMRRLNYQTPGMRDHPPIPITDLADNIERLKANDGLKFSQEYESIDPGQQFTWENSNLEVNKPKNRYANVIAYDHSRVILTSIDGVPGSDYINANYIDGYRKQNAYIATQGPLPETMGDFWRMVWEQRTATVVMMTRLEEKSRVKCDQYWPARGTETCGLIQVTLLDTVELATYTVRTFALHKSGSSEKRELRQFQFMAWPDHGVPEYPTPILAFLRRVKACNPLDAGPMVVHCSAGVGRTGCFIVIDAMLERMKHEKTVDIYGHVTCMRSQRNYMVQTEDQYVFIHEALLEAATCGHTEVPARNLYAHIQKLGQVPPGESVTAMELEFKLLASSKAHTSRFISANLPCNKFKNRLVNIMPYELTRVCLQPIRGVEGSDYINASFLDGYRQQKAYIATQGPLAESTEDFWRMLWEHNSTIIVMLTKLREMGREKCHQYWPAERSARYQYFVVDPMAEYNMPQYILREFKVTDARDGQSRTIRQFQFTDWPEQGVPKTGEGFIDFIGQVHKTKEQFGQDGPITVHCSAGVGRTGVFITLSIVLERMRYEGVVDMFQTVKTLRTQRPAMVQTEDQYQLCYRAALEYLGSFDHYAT

CC1=C[C@@]2(C)[C@@H]3C(=O)[C@@]45C(=O)N[C@@](O)(Cc6ccc(cc6)O[C@@H]6[C@H]7[C@@H](C[C@H](CO)C[C@@H]7C)[C@H]1[C@H]63)[C@H]4CC=C(C)[C@@H]25
IC50 [1]: > 200 µM | IC50 [2]: > 200 µM | IC50 [3]: > 200 µM | IC50 [4]: > 200 µM | IC50 [5]: > 200 µM | IC50 (NCI-H1975): 58 µM | IC50 (HepG2): > 80 µM | MIC (Staphylococcus aureus [6]): > 100 µg/mL | MIC (Staphylococcus aureus [7]): > 100 µg/mL | MIC (Escherichia coli): 100 µg/mL (≈ 184 µM) | MIC (Bacillus subtilis): 100 µg/mL (≈ 184 µM) | MIC (Streptococcus agalactiae): > 100 µg/mL | MIC [8]: > 100 µg/mL | MIC (Streptococcus iniae): 100 µg/mL (≈ 184 µM)
